Where “and” joins values, the source holds several entries; their conditions need not be identical. Identical values can stand only once. Like-named read-outs stand apart in the source and are kept apart here.
What was measured:
[1] = Red blood cell and neutrophil counts after single dose in dogs; assay type: in vivo; settings: out to 15 days
[2] = Blood cell counts in mice after 5-Fluorouracil with or without Compound 1; assay type: in vivo; settings: Compound 1 100 mg/kg before 5FU
Protocol: Blood cell counts for neutrophils, lymphocytes, red blood cells (RBCs), and platelets were conducted.

[3] = Compound 1 PK dosed Days 1-3 with etoposide and carboplatin; assay type: in vivo, human
Protocol: Analysis of plasma concentration versus time data for calculation of standard pharmacokinetic (PK) parameters following intravenous infusion administration was conducted using Phoenix WinNonlin version 6.3 using a nominal infusion duration and scheduled blood sampling times.

[4] = Nonclinical IV and oral pharmacokinetics in rats; assay type: in vivo; settings: rat, plasma
Description: Systemic exposure in rats as measured by Cmax and AUClast was dose-dependent.

[5] = Repeat-dose IV toxicity in dogs; assay type: in vivo
Protocol: The magnitude and/or duration of this effect differed among cell lineages but was dose-related in all lineages. Effects on hematopoiesis were readily monitored by peripheral blood cell counts and were reversible when dosing stopped.
In both species, the toxicity profile was similar and the repeat-dose toxicity studies identified no observed adverse effect levels (NOAELs). […] This IV NOAEL was the basis for selecting a starting dose of 6 mg/m^2 for the first clinical trial, which is 1/10th of the lowest safe dose level in any animal study.

[6] = 200 mg/m^2 with Etoposide and Carboplatin, Day 1, Max
[7] = 200 mg/m^2 with Etoposide and Carboplatin, Day 1, Min
[8] = 200 mg/m^2 with Etoposide and Carboplatin, Day 1, individual subjects
[9] = 200 mg/m^2 with Etoposide and Carboplatin, Day 3, Max
[10] = 200 mg/m^2 with Etoposide and Carboplatin, Day 3, Min
[11] = 200 mg/m^2 with Etoposide and Carboplatin, Day 3, individual subjects

With CN1CCN(c2ccc(Nc3ncc4cc5n(c4n3)C3(CCCCC3)CNC5=O)nc2)CC1 [Compound 1, 2′-((5-(4-methylpiperazin-1-yl)pyridin-2-yl)amino)-7′,8′-dihydro-6′H-spiro[cyclohexane-1,9′-pyrazino[1′,2′:1,5]pyrrolo[2,3-d]pyrimidin]-6′-one] the “effect on red blood cells and neutrophils” value [1] was “minimal”, the “loss of lymphocytes upon 5FU chemotherapy” value [2] was “significantly less loss” and the “loss of neutrophils upon 5FU chemotherapy” value [2] was “significantly less loss”. The “loss of platelets upon 5FU chemotherapy” value [2] was “significantly less loss”, the “loss of red blood cells upon 5FU chemotherapy” value [2] was “significantly less loss” and the AUCinf [3, 6] was 3320 ng·h/mL. The Cmax [3, 6] was 2170 ng/mL, the t½ [3, 6] was 10.6 h and the AUC24.5 [3, 7] was 1530 ng·h/mL. It also gave an AUCinf [3, 7] of 1650 ng·h/mL, a Cmax [3, 7] of 587 ng/mL and a t½ [3, 7] of 6.29 h. The AUC24.5 [3, 8] was 2850 ng·h/mL and 1930 ng·h/mL and 2010 ng·h/mL and 2520 ng·h/mL and 1530 ng·h/mL, the AUCinf [3, 8] was 2960 ng·h/mL and 3320 ng·h/mL and 2290 ng·h/mL and 2680 ng·h/mL and 1650 ng·h/mL and the Cmax [3, 8] was 2170 ng/mL and 742 ng/mL and 845 ng/mL and 1840 ng/mL and 587 ng/mL. The t½ [3, 8] was 8.94 h and 10.6 h and 8.91 h and 7.09 h and 7.28 h, the AUCτ [3, 9] was 3300 ng·h/mL and the Cmax [3, 9] was 3360 ng/mL. The AUCτ [3, 10] was 2010 ng·h/mL, the Cmax [3, 10] was 355 ng/mL and the t½ [3, 10] was 6.99 h. The AUCτ [3, 11] was 3300 ng·h/mL and 2010 ng·h/mL and 2630 ng·h/mL and 2610 ng·h/mL and 2890 ng·h/mL, the Cmax [3, 11] was 723 ng/mL and 355 ng/mL and 1190 ng/mL and 3360 ng/mL and the pre-dose concentration averaging ([3]; Day 3, mean) was 20.6 ng/mL. The AUC ([3]; human, plasma, intravenous, 200 mg/m2, 200 mg/m^2 with Etoposide and Carboplatin, Day 1, Geo. Mean, read-out: AUC24.5) was 2230 ng·h/mL, the AUC(0-inf) ([3]; human, plasma, intravenous, 200 mg/m2, 200 mg/m^2 with Etoposide and Carboplatin, Day 1, Geo. Mean, read-out: AUCinf) was 2470 ng·h/mL and the Cmax ([3]; human, plasma, intravenous, 200 mg/m2, 200 mg/m^2 with Etoposide and Carboplatin, Day 1, Geo. Mean, read-out: Cmax) was 1070 ng/mL. For the same compound, the half-life ([3]; human, plasma, intravenous, 200 mg/m2, 200 mg/m^2 with Etoposide and Carboplatin, Day 1, Geo. Mean, read-out: t½ (converted)) was 8.07 h, the AUC(0-inf) ([3]; human, plasma, intravenous, 200 mg/m2, 200 mg/m^2 with Etoposide and Carboplatin, Day 1, Mean, read-out: AUCinf) was 2530 ng·h/mL and the Cmax ([3]; human, plasma, intravenous, 200 mg/m2, 200 mg/m^2 with Etoposide and Carboplatin, Day 1, Mean, read-out: Cmax) was 1200 ng/mL. The half-life ([3]; human, plasma, intravenous, 200 mg/m2, 200 mg/m^2 with Etoposide and Carboplatin, Day 1, Mean, read-out: t½ (converted)) was 8.19 h, the AUC ([3]; human, plasma, intravenous, 200 mg/m2, 200 mg/m^2 with Etoposide and Carboplatin, Day 1, Median, read-out: AUC24.5) was 2270 ng·h/mL and the AUC(0-inf) ([3]; human, plasma, intravenous, 200 mg/m2, 200 mg/m^2 with Etoposide and Carboplatin, Day 1, Median, read-out: AUCinf) was 2490 ng·h/mL. The Cmax ([3]; human, plasma, intravenous, 200 mg/m2, 200 mg/m^2 with Etoposide and Carboplatin, Day 1, Median, read-out: Cmax) was 923 ng/mL, the half-life ([3]; human, plasma, intravenous, 200 mg/m2, 200 mg/m^2 with Etoposide and Carboplatin, Day 1, Median, read-out: t½ (converted)) was 8.09 h and the AUC ([3]; human, plasma, intravenous, 200 mg/m2, 200 mg/m^2 with Etoposide and Carboplatin, Day 1, individual subjects, read-out: AUC24.5) was 2860 ng·h/mL. The half-life ([3]; human, plasma, intravenous, 200 mg/m2, 200 mg/m^2 with Etoposide and Carboplatin, Day 1, individual subjects, read-out: t½ (converted)) was 6.29 h, the AUC ([3]; human, plasma, intravenous, 200 mg/m2, 200 mg/m^2 with Etoposide and Carboplatin, Day 3, Geo. Mean, read-out: AUCτ) was 2530 ng·h/mL and the Cmax ([3]; human, plasma, intravenous, 200 mg/m2, 200 mg/m^2 with Etoposide and Carboplatin, Day 3, Geo. Mean, read-out: Cmax) was 1090 ng/mL. The half-life ([3]; human, plasma, intravenous, 200 mg/m2, 200 mg/m^2 with Etoposide and Carboplatin, Day 3, Geo. Mean, read-out: t½ (converted)) was 8.95 h, the AUC ([3]; human, plasma, intravenous, 200 mg/m2, 200 mg/m^2 with Etoposide and Carboplatin, Day 3, Mean, read-out: AUCτ) was 2570 ng·h/mL and the Cmax ([3]; human, plasma, intravenous, 200 mg/m2, 200 mg/m^2 with Etoposide and Carboplatin, Day 3, Mean, read-out: Cmax) was 1380 ng/mL. The half-life ([3]; human, plasma, intravenous, 200 mg/m2, 200 mg/m^2 with Etoposide and Carboplatin, Day 3, Mean, read-out: t½ (converted)) was 9.04 h, the AUC ([3]; human, plasma, intravenous, 200 mg/m2, 200 mg/m^2 with Etoposide and Carboplatin, Day 3, Median, read-out: AUCτ) was 2620 ng·h/mL and the Cmax ([3]; human, plasma, intravenous, 200 mg/m2, 200 mg/m^2 with Etoposide and Carboplatin, Day 3, Median, read-out: Cmax) was 1100 ng/mL. It also gave a half-life ([3]; human, plasma, intravenous, 200 mg/m2, 200 mg/m^2 with Etoposide and Carboplatin, Day 3, Median, read-out: t½ (converted)) of 9.15 h, a half-life ([3]; human, plasma, intravenous, 200 mg/m2, 200 mg/m^2 with Etoposide and Carboplatin, Day 3, individual subjects, read-out: t½ (converted)) of 9.27 h and an AUC(0-inf) ([3]; human, plasma, intravenous, 200 mg/m2, 200 mg/m^2 with etoposide and carboplatin, Day 1, mean, read-out: AUCinf averaged) of 2530 ng·h/mL. It also gave a Cmax ([3]; human, plasma, intravenous, 200 mg/m2, 200 mg/m^2 with etoposide and carboplatin, Day 1, mean, read-out: Cmax averaged) of 1200 ng/mL, a half-life ([3]; human, plasma, intravenous, 200 mg/m2, 200 mg/m^2 with etoposide and carboplatin, Day 1, mean, read-out: Half-lives averaged (converted)) of 8.19 h and a half-life ([3]; human, plasma, intravenous, 200 mg/m2, 200 mg/m^2 with etoposide and carboplatin, Day 1, range, read-out: Half-lives range) of 6.29 to 10.6 h. It also gave an AUC ([3]; human, plasma, intravenous, 200 mg/m2, 200 mg/m^2 with etoposide and carboplatin, Day 3, mean, read-out: AUCτ averaged) of 2570 ng·h/mL, a Cmax ([3]; human, plasma, intravenous, 200 mg/m2, 200 mg/m^2 with etoposide and carboplatin, Day 3, mean, read-out: Cmax averaging) of 1380 ng/mL and a half-life ([3]; human, plasma, intravenous, 200 mg/m2, 200 mg/m^2 with etoposide and carboplatin, Day 3, mean, read-out: Half-lives averaged (converted)) of 9.04 h. For the same compound, the half-life ([3]; human, plasma, intravenous, 200 mg/m2, 200 mg/m^2 with etoposide and carboplatin, Day 3, range, read-out: Half-lives range) was 6.99 to 11 h, the concentration at 24.5 h ([3]; human, plasma, intravenous, Day 1, 4 subjects, mean, read-out: concentration at 24.5 hours after the start of infusion, averaging) was 20 ng/mL and the concentration at 24.5 h ([3]; human, plasma, intravenous, Day 1, 4 subjects, range, read-out: concentration at 24.5 hours after the start of infusion, range) was 11.3 to 35.9 ng/mL. For the same compound, the concentration at 24.5 h ([3]; human, plasma, intravenous, Day 3, mean, read-out: concentration at 24.5 hours after dosing, averaged) was 24.6 ng/mL, the concentration at 24.5 h ([3]; human, plasma, intravenous, Day 3, range, read-out: concentration at 24.5 hours after dosing, range) was 11.5 to 34.5 ng/mL and the half-life ([4]; both sexes, rats, after IV administration) was about 4 h. The bioavailability ([4]; oral) was 60 to 70%, the “dose with clinically significant leukopenia” value ([5]; dog, in vivo, 7 days) was 300 mg/m^2 and the “dose leading to morbidity and mortality” value ([5]; dogs, daily doses for 6 days) was 900 mg/m^2.
